Measurements taken from PubChem BioAssay AID248 (DTP/NCI, 2004).
Values joined by “and” are separate entries in the source; they are usually repeats but may differ in a detail not shown here. Equal entries are not always repeated. Inconclusive results and toxic doses are left out. No stated cut-off is given here; in the data, active means T/C of 150% or more; inactive means T/C below 125%.

System: L1210 leukemia ip in BDF1 mice, survival T/C
Assay: NCI In Vivo Anticancer Drug Screen. Data for tumor model L1210 Leukemia (intraperitoneal) in B6D2F1 (BDF1) mice
Conditions: endpoint: mean survival time, higher = longer survival
Outline: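 Tumor was transplanted into mice, which were then dosed with test compound or vehicle alone. Survival was recorded for each group, and the treated figure was expressed relative to the control figure.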

[1] = dose: 100.0 mg/kg/injection, schedule: Q04DX002 (ip), vehicle: Klucel (hydroxypropylcellulose) (HPC)
[2] = dose: 200.0 mg/kg/injection, schedule: Q04DX002 (ip), vehicle: Klucel (hydroxypropylcellulose) (HPC)
[3] = dose: 100.0 mg/kg/injection, schedule: Q04DX002 (ip), vehicle: saline with Tween-80
[4] = dose: 200.0 mg/kg/injection, schedule: Q04DX002 (ip), vehicle: saline with Tween-80
[5] = dose: 400.0 mg/kg/injection, schedule: Q04DX002 (ip), vehicle: saline with Tween-80
[6] = dose: 100.0 mg/kg/injection, schedule: Q01DX001 (ip), vehicle: other
[7] = dose: 200.0 mg/kg/injection, schedule: Q01DX001 (ip), vehicle: other
[8] = dose: 400.0 mg/kg/injection, schedule: Q01DX001 (ip), vehicle: other
[9] = dose: 100.0 mg/kg/injection, schedule: Q04DX003 (ip), vehicle: Klucel (hydroxypropylcellulose) (HPC)
[10] = dose: 200.0 mg/kg/injection, schedule: Q04DX003 (ip), vehicle: Klucel (hydroxypropylcellulose) (HPC)
[11] = dose: 400.0 mg/kg/injection, schedule: Q04DX003 (ip), vehicle: Klucel (hydroxypropylcellulose) (HPC)
[12] = dose: 50.0 mg/kg/injection, schedule: Q01DX009 (ip), vehicle: saline with Tween-80
[13] = dose: 100.0 mg/kg/injection, schedule: Q01DX009 (ip), vehicle: saline with Tween-80
[14] = dose: 100.0 mg/kg/injection, schedule: Q04DX003 (ip), vehicle: saline with Tween-80
[15] = dose: 200.0 mg/kg/injection, schedule: Q01DX009 (ip), vehicle: saline with Tween-80
[16] = dose: 200.0 mg/kg/injection, schedule: Q04DX003 (ip), vehicle: saline with Tween-80

Measured: T/C

Cc1c(F)cccc1NCC(=O)NN
inactive: [1] 101 % of control | [2] 115 % of control

NNC(=O)c1ccc(I)cc1
inactive: [3] 118 % of control | [4] 118 % of control | [5] 107 % of control

CC1(C)Cc2c(OC(N)=O)cccc2O1
inactive: dose: 25.0 mg/kg/injection, schedule: Q01DX001 (ip), vehicle: Klucel (hydroxypropylcellulose) (HPC) 102 % of control | dose: 50.0 mg/kg/injection, schedule: Q01DX001 (ip), vehicle: Klucel (hydroxypropylcellulose) (HPC) 98 % of control

O=C1C=CC(=O)c2c(O)c(CO)c(CO)c(O)c21
inactive: dose: 0.78 mg/kg/injection, schedule: Q01DX009 (ip), vehicle: water 89 % of control | dose: 1.56 mg/kg/injection, schedule: Q01DX009 (ip), vehicle: water 86 % of control

S=C1NCC2CCc3c(ccc4ccccc34)N12 (stereo unspecified)
inactive: [6] 97 % of control | [7] 90 % of control | [8] 95 % of control

CC(C)OC(=O)Nc1cccc(C(F)(F)F)c1
inactive: [1] 103 % of control | [2] 88 % of control | dose: 400.0 mg/kg/injection, schedule: Q04DX002 (ip), vehicle: Klucel (hydroxypropylcellulose) (HPC) 106 % of control

CS(=O)(=O)OCC1CCc2[nH]c3ccccc3c2C1 (stereo unspecified)
inactive: [9] 108 % of control | [10] 97 % of control | [11] 97 % of control

NC(=O)NC(=O)CCl
inactive: dose: 50.0 mg/kg/injection, schedule: Q04DX002 (ip), vehicle: Klucel (hydroxypropylcellulose) (HPC) 103 % of control | [1] 109 % of control | [2] 95 % of control

CC(=O)c1ccc[n+](C)c1
inactive: dose: 50.0 mg/kg/injection, schedule: Q01DX009 (ip), vehicle: saline 102 % of control | dose: 100.0 mg/kg/injection, schedule: Q01DX009 (ip), vehicle: saline 100 % of control | dose: 200.0 mg/kg/injection, schedule: Q01DX009 (ip), vehicle: saline 91 % of control

CC(C)(C)OOC(=O)c1ccccc1
inactive: dose: 25.0 mg/kg/injection, schedule: Q01DX009 (ip), vehicle: Klucel (hydroxypropylcellulose) (HPC) 96 % of control | dose: 50.0 mg/kg/injection, schedule: Q01DX001 (ip), vehicle: other 90 % of control | dose: 50.0 mg/kg/injection, schedule: Q01DX009 (ip), vehicle: Klucel (hydroxypropylcellulose) (HPC) 97 % of control | dose: 75.0 mg/kg/injection, schedule: Q01DX009 (ip), vehicle: Klucel (hydroxypropylcellulose) (HPC) 97 % of control and 101 % of control | [6] 100 % of control | [9] 107 % of control | [7] 102 % of control | [10] 115 % of control | [8] 94 % of control | [11] 96 % of control

CCS(=O)(=O)c1ccc(NC(=O)OCc2ccccc2)cc1
inactive: dose: 100.0 mg/kg/injection, schedule: Q01DX001 (ip), vehicle: carboxymethylcellulose (CMC) 94 % of control | dose: 200.0 mg/kg/injection, schedule: Q01DX001 (ip), vehicle: carboxymethylcellulose (CMC) 94 % of control | dose: 400.0 mg/kg/injection, schedule: Q01DX001 (ip), vehicle: carboxymethylcellulose (CMC) 92 % of control

c1ccc(C(C(=Nc2ccc(Cc3ccc(N=C(C(c4ccccc4)c4ccccc4)N4CC4)cc3)cc2)N2CC2)c2ccccc2)cc1
inactive: dose: 70.0 mg/kg/injection, schedule: Q01DX009 (ip), vehicle: saline 103 % of control | dose: 140.0 mg/kg/injection, schedule: Q01DX009 (ip), vehicle: saline 104 % of control | dose: 280.0 mg/kg/injection, schedule: Q01DX009 (ip), vehicle: saline 93 % of control

Nc1ccc2nc3c4ccccc4c(O)n3nc2c1
inactive: [3] 106 % of control | [4] 102 % of control | [5] 102 % of control

[Cu+2].[NH-]CC(=O)O.[NH-]CC(=O)O
inactive: dose: 5.0 mg/kg/injection, schedule: Q04DX003 (ip), vehicle: saline 103 % of control | dose: 10.0 mg/kg/injection, schedule: Q04DX003 (ip), vehicle: saline 99 % of control | dose: 20.0 mg/kg/injection, schedule: Q04DX003 (ip), vehicle: saline 94 % of control

CCCC[Si]CCCC
inactive: dose: 25.0 mg/kg/injection, schedule: Q01DX001 (ip), vehicle: saline with Tween-80 103 % of control | dose: 25.0 mg/kg/injection, schedule: Q01DX009 (ip), vehicle: saline with Tween-80 103 % of control | dose: 50.0 mg/kg/injection, schedule: Q01DX001 (ip), vehicle: saline with Tween-80 110 % of control | [12] 101 % of control | dose: 100.0 mg/kg/injection, schedule: Q01DX001 (ip), vehicle: saline with Tween-80 102 % of control | [13] 101 % of control

NCCSC(O)(C(F)(F)F)C(F)(F)F
inactive: dose: 37.5 mg/kg/injection, schedule: Q04DX003 (ip), vehicle: saline 103 % of control | dose: 75.0 mg/kg/injection, schedule: Q01DX001 (ip), vehicle: saline 113 % of control and 101 % of control | dose: 75.0 mg/kg/injection, schedule: Q04DX003 (ip), vehicle: saline 102 % of control and 103 % of control | dose: 150.0 mg/kg/injection, schedule: Q01DX001 (ip), vehicle: saline 106 % of control and 109 % of control | dose: 150.0 mg/kg/injection, schedule: Q04DX003 (ip), vehicle: saline 104 % of control and 100 % of control

C=CCNc1ccc(C)cc1
inactive: dose: 50.0 mg/kg/injection, schedule: Q01DX009 (ip), vehicle: other 92 % of control | dose: 100.0 mg/kg/injection, schedule: Q01DX009 (ip), vehicle: other 104 % of control | dose: 100.0 mg/kg/injection, schedule: Q04DX003 (ip), vehicle: other 100 % of control | dose: 200.0 mg/kg/injection, schedule: Q04DX003 (ip), vehicle: other 109 % of control

N#C/C(=C\C=C\c1ccccc1)C(N)=O
inactive: [12] 102 % of control | [13] 96 % of control | [14] 96 % of control | [15] 101 % of control | [16] 100 % of control

CCC(=N\N=C(N)N)/C(C)=N\N=C(N)N
inactive: dose: 15.0 mg/kg/injection, schedule: Q01DX Z (ip), vehicle: saline 93 % of control | dose: 30.0 mg/kg/injection, schedule: Q01DX Z (ip), vehicle: saline 98 % of control | dose: 120.0 mg/kg/injection, schedule: Q01DX Z (ip), vehicle: saline 121 % of control

CCOc1ccc(/C=N/NC(=O)c2ccccc2NC(=O)C2CC2)cc1OC
inactive: [13] 100 % of control | [14] 92 % of control | [15] 92 % of control | [16] 95 % of control | dose: 400.0 mg/kg/injection, schedule: Q01DX009 (ip), vehicle: saline with Tween-80 94 % of control | dose: 400.0 mg/kg/injection, schedule: Q04DX003 (ip), vehicle: saline with Tween-80 90 % of control

CC(C)c1ccc(C(=S)N2CCOCC2)cc1
inactive: [9] 97 % of control | [10] 101 % of control | [11] 105 % of control

CCOC(=O)Nc1ccc(Cl)c(Cl)c1
inactive: dose: 100.0 mg/kg/injection, schedule: Q01DX009 (ip), vehicle: Klucel (hydroxypropylcellulose) (HPC) 98 % of control | dose: 200.0 mg/kg/injection, schedule: Q01DX009 (ip), vehicle: Klucel (hydroxypropylcellulose) (HPC) 101 % of control | dose: 400.0 mg/kg/injection, schedule: Q01DX009 (ip), vehicle: Klucel (hydroxypropylcellulose) (HPC) 108 % of control
